Experimental data: ChEMBL document CHEMBL1811807, “Evaluation of influence of Ap4A analogues on Fhit-positive HEK293T cells; cytotoxicity and ability to induce apoptosis” (Bioorg Med Chem, 2011)
Blank lines part the entries; values can stand above or below the molecule they belong to. The source made the active and inactive calls. The calls are words filed in the database; no cut-off is given here.

Columns and labels:
[1] = Drug uptake in Fhit-positive HEK293T cells cytoplasmic compartment at 7.5 uM after 24 hrs using fluorescein labeled compound; assay type: ADME, cell-based; settings: human, hek-293t
[2] = Drug uptake in Fhit-positive HEK293T cells at 7.5 uM after 24 hrs using fluorescein labeled compound; assay type: ADME, cell-based; settings: human, hek-293t
[3] = Drug uptake in Fhit-positive HEK293T cells Vesicular structures compartment at 7.5 uM after 24 hrs using fluorescein labeled compound; assay type: ADME, cell-based; settings: human, hek-293t
[4] = Stability in medium collected from human HEK293T cells assessed as compound degradation level at 1 mM incubated up to 48 hrs at 37 degC; assay type: ADME, cell-based, HEK-293T; settings: read-out: Activity
[5] = Stability in HEK293T cellular extract assessed as compound degradation level at 1 mM incubated after 48 hrs at 37 degC; assay type: ADME, HEK-293T; settings: human, read-out: Activity
[6] = Stability in medium collected from human HEK293T cells assessed as intact compound level at 1 mM incubated up to 48 hrs at 37 degC; assay type: ADME, cell-based, HEK-293T; settings: read-out: Stability
HEK-293T [7] = assay: Induction of apoptosis in Fhit-positive HEK293T cells assessed as caspase-3 activation at 5 uM in presence of Fhit-specific siRNA after 18 hrs by fluorescent assay; assay type: functional, cell-based; settings: Homo sapiens
HEK-293T [8] = assay: Induction of apoptosis in Fhit-positive HEK293T cells assessed as caspase-8 activation at 5 uM in presence of Fhit-specific siRNA after 18 hrs by fluorescent assay; assay type: functional, cell-based; settings: Homo sapiens
HEK-293T [9] = assay: Cytotoxicity in Fhit-positive HEK293T cells after 72 hrs bu MTT assay; assay type: functional, cell-based; settings: Homo sapiens
HEK-293T [10] = assay: Induction of apoptosis in Fhit-positive HEK293T cells assessed as caspase-3 activation at 0.5 to 1 uM after 18 hrs by fluorescent assay; assay type: functional, Homo sapiens
HeLa = assay: Cytotoxicity in Fhit-negative human HeLa cells after 72 hrs bu MTT assay; assay type: functional, cell-based
HEK-293T [11] = assay: Induction of apoptosis in Fhit-positive HEK293T cells at 5 uM after 48 hrs by Annexin-V assay (reference value: 3.9 +/- 0.95%); assay type: functional, Homo sapiens
[12] = target: Bis(5'-adenosyl)-triphosphatase (Homo sapiens, UniProt P49789); assay: Inhibition of Fragile histidine triad protein hydrolytic activity
Bis(5'-adenosyl)-triphosphatase, sequence (P49789 whole entry): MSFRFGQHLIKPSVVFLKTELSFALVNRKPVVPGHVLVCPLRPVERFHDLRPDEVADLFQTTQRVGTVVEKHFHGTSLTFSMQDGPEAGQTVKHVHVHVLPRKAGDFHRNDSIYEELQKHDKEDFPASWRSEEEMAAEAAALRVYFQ

A549 = assay: Cytotoxicity in Fhit-negative human A549 cells after 72 hrs bu MTT assay; assay type: functional, cell-based; settings: A549, 72 h
HEK-293T [13] = assay: Induction of apoptosis in Fhit-positive HEK293T cells at 5 uM after 24 hrs by Annexin-V assay (reference value: 3.9 +/- 0.95%); assay type: functional, Homo sapiens
[14] = Stability in human HEK293T cellular extract assessed as intact compound level at 1 mM incubated after 48 hrs at 37 degC; assay type: ADME, cell-based, HEK-293T; settings: read-out: Stability
HEK-293T [15] = assay: Induction of apoptosis in Fhit-positive HEK293T cells assessed as caspase-3 activation at 5 uM after 18 hrs by fluorescent assay; assay type: functional, Homo sapiens
HL-60 = assay: Cytotoxicity in human HL60 cells after 72 hrs bu MTT assay; assay type: functional, cell-based; settings: HL-60, 72 h
HEK-293T [16] = assay: Induction of apoptosis in Fhit-positive HEK293T cells assessed as caspase-9 activation at 5 uM after 18 hrs by luminescent assay; assay type: functional, Homo sapiens
HEK-293T [17] = assay: Induction of apoptosis in Fhit-positive HEK293T cells assessed as caspase-8 activation at 5 uM after 18 hrs by luminescent assay; assay type: functional, Homo sapiens
HEK-293T [18] = assay: Induction of apoptosis in Fhit-positive HEK293T cells assessed as caspase-3 activation at 0.5 to 5 uM after 18 hrs by fluorescent assay; assay type: functional, Homo sapiens
HEK-293T [19] = assay: Induction of apoptosis in Fhit-positive HEK293T cells assessed as caspase-3 activation at 5 to 10 uM after 18 hrs by fluorescent assay; assay type: functional, cell-based; settings: Homo sapiens
HEK-293T [20] = assay: Induction of apoptosis in Fhit-positive HEK293T cells at 20 uM by Annexin-V assay (reference value: 3.9 +/- 0.95%); assay type: functional, Homo sapiens

- Drug uptake [1]: Active
- Drug uptake [2]: Active
- Drug uptake [3]: Active
Structure (SMILES): Nc1ncnc2c1ncn2[C@@H]1O[C@H](COP(=O)(S)OCC(O)COP(=O)(S)OCCCCCCNC(=O)c2ccc3c(c2)C2(OC3=O)c3ccc(O)cc3Oc3cc(O)ccc32)[C@@H](O)[C@H]1O (some centres undefined)

- degraded at 48 h, 1000 µM [4]: 95%
- metabolised at 48 h, 1000 µM [5]: 88.7%
- remaining at 48 h, 1000 µM [6]: 95%
Structure (SMILES): Nc1ncnc2c1ncn2[C@@H]1O[C@H](COP(=O)(O)OP(=O)(O)OP(=O)(O)OC[C@H]2O[C@@H](n3cnc4c(N)ncnc43)[C@H](O)[C@@H]2O)[C@@H](O)[C@H]1O

Structure (SMILES): Nc1ncnc2c1ncn2[C@@H]1O[C@H](COP(=O)(S)OCC(O)COP(=O)(S)OC[C@H]2O[C@@H](n3cnc4c(N)ncnc43)[C@H](O)[C@@H]2O)[C@@H](O)[C@H]1O (mixture of isomers)
- Activity (HEK-293T [7]): inactive
- Activity (HEK-293T [8]): inactive
- IC50 (HEK-293T [9]): 17.5 µM
- Activity (HEK-293T [10]): 10%
- IC50 (HeLa): > 80 µM
- Activity (HEK-293T [11]): 14.24%
- Ki [12]: 35 nM
- IC50 (A549): > 80 µM
- Activity (HEK-293T [13]): 10.5%
- remaining at 48 h, 1000 µM [14]: 90%
- Activity (HEK-293T [15]): 27%
- IC50 (HL-60): 9 µM
- Activity (HEK-293T [16]): 21%
- Activity (HEK-293T [17]): 23%
- Activity (HEK-293T [18]): 17%
- Activity (HEK-293T [19]): inactive
- remaining at 48 h, 1000 µM [6]: 97%
- Activity (HEK-293T [20]): 12.27%

Structure (SMILES): Nc1ncnc2c1ncn2[C@@H]1O[C@H](COP(=O)(S)OCC(COP(=O)(O)S)(COP(=O)(S)OC[C@H]2O[C@@H](n3cnc4c(N)ncnc43)[C@H](O)[C@@H]2O)COP(=O)(S)OC[C@H]2O[C@@H](n3cnc4c(N)ncnc43)[C@H](O)[C@@H]2O)[C@@H](O)[C@H]1O (mixture of isomers)
- IC50 (HEK-293T [9]): > 80 µM
- Ki [12]: 35 nM
- remaining at 48 h, 1000 µM [6]: 97%

- Ki [12]: 35 nM
- remaining at 48 h, 1000 µM [6]: 97%
Structure (SMILES): Nc1ncnc2c1ncn2[C@@H]1O[C@H](COP(=O)(S)OCC(COP(=O)(S)OC[C@H]2O[C@@H](n3cnc4c(N)ncnc43)[C@H](O)[C@@H]2O)(COP(=O)(S)OC[C@H]2O[C@@H](n3cnc4c(N)ncnc43)[C@H](O)[C@@H]2O)COP(=O)(S)OC[C@H]2O[C@@H](n3cnc4c(N)ncnc43)[C@H](O)[C@@H]2O)[C@@H](O)[C@H]1O (mixture of isomers)
- IC50 (HEK-293T [9]): > 80 µM

- Ki [12]: 35 nM
- remaining at 48 h, 1000 µM [6]: 97%
Structure (SMILES): Nc1ncnc2c1ncn2[C@@H]1O[C@H](COP(=O)(S)OCC(COP(=O)(S)OC[C@H]2O[C@@H](n3cnc4c(N)ncnc43)[C@H](O)[C@@H]2O)OP(=O)(S)OC[C@H]2O[C@@H](n3cnc4c(N)ncnc43)[C@H](O)[C@@H]2O)[C@@H](O)[C@H]1O (mixture of isomers)
- IC50 (HEK-293T [9]): > 80 µM

- Ki [12]: 35 nM
- remaining at 48 h, 1000 µM [6]: 97%
Structure (SMILES): Nc1ncnc2c1ncn2[C@@H]1O[C@H](COP(=O)(S)OCC(COP(=O)(S)OC[C@H]2O[C@@H](n3cnc4c(N)ncnc43)[C@H](O)[C@@H]2O)OP(=O)(O)S)[C@@H](O)[C@H]1O (mixture of isomers)
- IC50 (HEK-293T [9]): > 80 µM

- degraded at 48 h, 1000 µM [4]: 95%
- metabolised at 48 h, 1000 µM [5]: 92.8%
- remaining at 48 h, 1000 µM [6]: 95%
Structure (SMILES): Nc1ncnc2c1ncn2[C@@H]1O[C@H](COP(=O)(O)OP(=O)(O)OP(=O)(O)OP(=O)(O)OC[C@H]2O[C@@H](n3cnc4c(N)ncnc43)[C@H](O)[C@@H]2O)[C@@H](O)[C@H]1O [DIADENOSINE TETRAPHOSPHATE]
